Data: the supplement of paper PMC10307832

What was measured:
Test in all cases: relative viability (nuclei count vs DMSO), 5 days (fraction); higher = more cells survive
Linsitinib + Lapatinib = compound: C[C@]1(O)C[C@@H](c2nc(-c3ccc4ccc(-c5ccccc5)nc4c3)c3c(N)nccn32)C1 [Linsitinib] + CS(=O)(=O)CCNCc1ccc(-c2ccc3ncnc(Nc4ccc(OCc5cccc(F)c5)c(Cl)c4)c3c2)o1 [Lapatinib] (partner 2 µM)
Outline: (§1)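 Nuclei were stained with Hoechst during a one-step fixation (final 0.05% Triton X-100, 1% formaldehyde, 1 ug/ml Hoechst) carried out 5 days after dosing, then counted on 4× images. The cells, lung cancer lines in 1536-well plates, had been dosed by pin tool the day after seeding with one drug alone or a fixed anchor-drug dose plus five library-drug doses (not always all listed) in √10 steps. Relative viability is the nuclei count in treated wells divided by that in vehicle wells, and each value is the median of duplicate plates.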

Linsitinib + Vorinostat = compound: C[C@]1(O)C[C@@H](c2nc(-c3ccc4ccc(-c5ccccc5)nc4c3)c3c(N)nccn32)C1 [Linsitinib] + O=C(CCCCCCC(=O)Nc1ccccc1)NO [Vorinostat] (partner 1 µM)
Outline: as §1

Ispinesib + Palbociclib = compound: Cc1ccc(C(=O)N(CCCN)[C@@H](c2nc3cc(Cl)ccc3c(=O)n2Cc2ccccc2)C(C)C)cc1 [Ispinesib] + CC(=O)c1c(C)c2cnc(Nc3ccc(N4CCNCC4)cn3)nc2n(C2CCCC2)c1=O [Palbociclib] (partner 0.5 µM)
Outline: as §1

Ispinesib + Linsitinib = compound: Cc1ccc(C(=O)N(CCCN)[C@@H](c2nc3cc(Cl)ccc3c(=O)n2Cc2ccccc2)C(C)C)cc1 [Ispinesib] + C[C@]1(O)C[C@@H](c2nc(-c3ccc4ccc(-c5ccccc5)nc4c3)c3c(N)nccn32)C1 [Linsitinib] (partner 1 µM)
Outline: as §1

Row | Cell Line | relative viability (Linsitinib + Lapatinib; first compound 0.01 µM) | relative viability (Linsitinib + Lapatinib; first compound 0.03162 µM) | relative viability (Linsitinib + Lapatinib; first compound 0.1 µM) | relative viability (Linsitinib + Lapatinib; first compound 0.3162 µM) | relative viability (Linsitinib + Lapatinib; first compound 1 µM) | relative viability (Linsitinib + Vorinostat; first compound 0.01 µM) | relative viability (Linsitinib + Vorinostat; first compound 0.03162 µM) | relative viability (Linsitinib + Vorinostat; first compound 0.1 µM) | relative viability (Linsitinib + Vorinostat; first compound 0.3162 µM) | relative viability (Linsitinib + Vorinostat; first compound 1 µM) | relative viability (Ispinesib + Palbociclib; first compound 0.001 µM) | relative viability (Ispinesib + Palbociclib; first compound 0.003162 µM) | relative viability (Ispinesib + Palbociclib; first compound 0.01 µM) | relative viability (Ispinesib + Palbociclib; first compound 0.03162 µM) | relative viability (Ispinesib + Palbociclib; first compound 0.1 µM) | relative viability (Ispinesib + Linsitinib; first compound 0.001 µM) | relative viability (Ispinesib + Linsitinib; first compound 0.003162 µM) | relative viability (Ispinesib + Linsitinib; first compound 0.01 µM) | relative viability (Ispinesib + Linsitinib; first compound 0.03162 µM) | relative viability (Ispinesib + Linsitinib; first compound 0.1 µM)
1 | COR-L 105 | 0.452 | 0.35 | 0.357 | 0.325 | 0.296 | 0.749 | 0.872 | 0.712 | 0.389 | 0.609 | 0.439 | 0.39 | 0.369 | 0.362 | 0.305 | 0.985 | 0.993 | 0.814 | 0.492 | 0.26
2 | NCI-H1944 | 0.787 | 0.833 | 0.872 | 0.527 | 0.46 | 0.508 | 0.674 | 0.537 | 0.45 | 0.317 | 0.347 | 0.35 | 0.353 | 0.279 | 0.304 | 1.24 | 1.38 | 1.18 | 0.975 | 0.979
3 | NCI-H2009 | 0.945 | 0.878 | 0.997 | 0.148 | 0.963 | 0.725 | 0.699 | 0.796 | 0.58 | 0.669 | 0.234 | 0.153 | 0.222 | 0.113 | 0.169 | 1.28 | 1.18 | 1.29 | 0.957 | 0.475
4 | NCI-H1437 | 0.758 | 0.787 | 0.811 | 0.551 | 0.715 | 0.815 | 0.709 | 0.851 | 0.618 | 0.626 | 0.329 | 0.319 | 0.325 | 0.332 | 0.13 | 1.12 | 1.28 | 1.54 | 0.995 | 0.303
